Source: US20240270695A1, “COMPOUNDS, COMPOSITIONS AND METHODS OF TREATING DISORDERS” (Chengdu Anticancer Bioscience LTD, priority 2021, published 2024)
Where two headings read alike, the source gives them in different places.

System: RPE-Neo or RPE-MYC or RPE-MYC expressing an EGFP-Histone 2B fusion protein
Experiment: Phenotypic screening assay (arrest in mitosis, change in DNA content, cell death; GE IN-Cell Analyzer 2000)
Format: cell-based
Details: Homo sapiens, compounds 20 nM to 20 μM, 24, 48 or 72 hours
[1] = read-out: Min. Effective conc. for Polyploidy (≥10%)
[2] = min. effective conc., read-out: Cell Death (>30%)
[3] = min. effective conc., read-out: Mitotic Arrest (≥10%)

Row | Compound | minimal effective concentration [1] [µM] | minimal effective concentration [2] [µM] | minimal effective concentration [3] [µM]
1 | COC(=O)C1=C(O)c2ccccc2N(Cc2cccc(C)c2)C(=O)C1 [Example 5, Methyl 5-hydroxy-1-(3-methylbenzyl)-2-oxo-2,3-dihydro-1H-benzo[b]azepine-4-carboxylate] | 30 to 1000 | 30 to 1000 | 30 to 1000
2 | COC(=O)C1=C(O)c2cc(F)ccc2N(Cc2ccc(C)c(F)c2)C(=O)C1 [Example 52, Methyl 7-fluoro-1-(3-fluoro-4-methylbenzyl)-5-hydroxy-2-oxo-2,3-dihydro-1H-benzo[b]azepine-4-carboxylate] | 0.001 to 1 | 0.001 to 1 | 0.001 to 1
3 | COC(=O)C1=C(O)c2ccccc2N(Cc2ccc3ccccc3c2)C(=O)C1 [Example 14, Methyl 5-hydroxy-1-(naphthalen-2-ylmethyl)-2-oxo-2,3-dihydro-1H-benzo[b]azepine-4-carboxylate] | 1 to 10 | 1 to 10 | 1 to 10
4 | COC(=O)C1=C(O)c2ccccc2N(Cc2ccc(OC)c(OC)c2)C(=O)C1 [Example 51, Methyl 1-(3,4-dimethoxybenzyl)-5-hydroxy-2-oxo-2,3-dihydro-1H-benzo[b]azepine-4-carboxylate] | 30 to 1000 | 30 to 1000 | 30 to 1000
5 | COC(=O)C1=C(O)c2ccccc2N(Cc2c(C)cccc2C)C(=O)C1 [Example 16, Methyl 1-(2,6-dimethylbenzyl)-5-hydroxy-2-oxo-2,3-dihydro-1H-benzo[b]azepine-4-carboxylate] | – | 30 to 1000 | –
6 | COC(=O)C1=C(O)c2ccccc2N(Cc2ccc(OC)c(F)c2)C(=O)C1 [Example 48, Methyl 1-(3-fluoro-4-methoxybenzyl)-5-hydroxy-2-oxo-2,3-dihydro-1H-benzo[b]azepine-4-carboxylate] | 0.001 to 1 | 0.001 to 1 | 0.001 to 1
7 | COC(=O)C1=C(O)c2ccccc2N(Cc2ccc(OC(F)F)cc2)C(=O)C1 [Example 33, Methyl 1-(4-(difluoromethoxy)benzyl)-5-hydroxy-2-oxo-2,3-dihydro-1H-benzo[b]azepine-4-carboxylate] | 1 to 10 | 1 to 10 | 1 to 10
8 | Cc1ccc(CN2C(=O)CC(C(=O)NC(C)C)=C(O)c3ccccc32)cc1F [Example 65, 1-(3-fluoro-4-methylbenzyl)-5-hydroxy-N-isopropyl-2-oxo-2,3-dihydro-1H-benzo[b]azepine-4-carboxamide] | 1 to 10 | 1 to 10 | 1 to 10
9 | Cc1ccc(CN2C(=O)CC(C(=O)C(C)C)=C(O)c3ccccc32)cc1F [Example 59, 1-(3-fluoro-4-methylbenzyl)-5-hydroxy-4-isobutyryl-1,3-dihydro-2H-benzo[b]azepin-2-one] | 0.001 to 1 | 0.001 to 1 | 0.001 to 1
10 | CCCc1ccc(CN2C(=O)CC(C(=O)OC)=C(O)c3ccccc32)cc1 [Example 49, Methyl 5-hydroxy-2-oxo-1-(4-propylbenzyl)-2,3-dihydro-1H-benzo[b]azepine-4-carboxylate] | 10 to 30 | 10 to 30 | 10 to 30
11 | COC(=O)C1=C(O)c2ccccc2N(Cc2cc(C)cc(C)c2)C(=O)C1 [Example 6, Methyl 1-(3,5-dimethylbenzyl)-5-hydroxy-2-oxo-2,3-dihydro-1H-benzo[b]azepine-4-carboxylate] | 30 to 1000 | 30 to 1000 | 30 to 1000
12 | COC(=O)C1=C(O)c2cnccc2N(Cc2ccc(C)c(F)c2)C(=O)C1 [Example 53, Methyl 1-(3-fluoro-4-methylbenzyl)-5-hydroxy-2-oxo-2,3-dihydro-1H-pyrido[4,3-b] azepine-4-carboxylate] | 1 to 10 | 1 to 10 | 1 to 10
13 | COC(=O)C1=C(O)c2ccccc2N(Cc2cccc(OC)c2)C(=O)C1 [Example 27, Methyl 5-hydroxy-1-(3-methoxybenzyl)-2-oxo-2,3-dihydro-1H-benzo[b]azepine-4-carboxylate] | 10 to 30 | – | 10 to 30
14 | COC(=O)C1=C(O)c2ccccc2N(Cc2cc(F)c(F)c(F)c2)C(=O)C1 [Example 28, Methyl 5-hydroxy-2-oxo-1-(3,4,5-trifluorobenzyl)-2,3-dihydro-1H-benzo[b]azepine-4-carboxylate] | – | 30 to 1000 | –
15 | COC(=O)C1=C(O)c2ccccc2N(Cc2ccc(F)cc2F)C(=O)C1 [Example 18, Methyl 1-(2,4-difluorobenzyl)-5-hydroxy-2-oxo-2,3-dihydro-1H-benzo[b]azepine-4-carboxylate] | 30 to 1000 | 30 to 1000 | 30 to 1000
16 | CCCCc1ccc(CN2C(=O)CC(C(=O)OC)=C(O)c3ccccc32)cc1 [Example 50, Methyl 1-(4-butylbenzyl)-5-hydroxy-2-oxo-2,3-dihydro-1H-benzo[b]azepine-4-carboxylate] | 10 to 30 | 10 to 30 | 10 to 30
17 | COC(=O)C1=C(O)c2ccccc2N(Cc2ccc(C)c(C)c2)C(=O)C1 [Example 36, Methyl 1-(3,4-dimethylbenzyl)-5-hydroxy-2-oxo-2,3-dihydro-1H-benzo[b]azepine-4-carboxylate] | 10 to 30 | 10 to 30 | 10 to 30
18 | COC(=O)C1=C(O)c2ccccc2N(Cc2ccc(OC)cc2)C(=O)C1 [Example 34, Methyl 5-hydroxy-1-(4-methoxybenzyl)-2-oxo-2,3-dihydro-1H-benzo[b]azepine-4-carboxylate] | 0.001 to 1 | 0.001 to 1 | 0.001 to 1
19 | CCNC(=O)C1=C(O)c2ccccc2N(Cc2ccc(C)c(F)c2)C(=O)C1 [Example 64, N-ethyl-1-(3-fluoro-4-methylbenzyl)-5-hydroxy-2-oxo-2,3-dihydro-1H-benzo[b]azepine-4-carboxamide] | 1 to 10 | 1 to 10 | 1 to 10
20 | COC(=O)C1=C(O)c2ccccc2N(Cc2cc(F)cc(F)c2)C(=O)C1 [Example 20, Methyl 1-(3,5-difluorobenzyl)-5-hydroxy-2-oxo-2,3-dihydro-1H-benzo[b]azepine-4-carboxylate] | 30 to 1000 | 30 to 1000 | 30 to 1000
21 | COC(=O)C1=C(O)c2ccccc2N(Cc2cc(F)ccc2F)C(=O)C1 [Example 19, Methyl 1-(2,5-difluorobenzyl)-5-hydroxy-2-oxo-2,3-dihydro-1H-benzo[b]azepine-4-carboxylate] | 30 to 1000 | 30 to 1000 | 30 to 1000
22 | CCC(=O)C1=C(O)c2ccccc2N(Cc2ccc(C)c(F)c2)C(=O)C1 [Example 55, 1-(3-fluoro-4-methylbenzyl)-5-hydroxy-4-propionyl-1,3-dihydro-2H-benzo[b]azepin-2-one] | 0.001 to 1 | – | 0.001 to 1
23 | COC(=O)C1=C(O)c2ccccc2N(Cc2cccc(C)c2C)C(=O)C1 [Example 17, Methyl 1-(2,3-dimethylbenzyl)-5-hydroxy-2-oxo-2,3-dihydro-1H-benzo[b]azepine-4-carboxylate] | 1 to 10 | 1 to 10 | 1 to 10
24 | COC(=O)C1=C(O)c2ccccc2N(Cc2ccc(F)cc2)C(=O)C1 [Example 10, Methyl 1-(4-fluorobenzyl)-5-hydroxy-2-oxo-2,3-dihydro-1H-benzo[b]azepine-4-carboxylate] | 30 to 1000 | – | 30 to 1000
25 | COC(=O)C1=C(O)c2ccccc2N(Cc2ccccc2F)C(=O)C1 [Example 9, Methyl 1-(2-fluorobenzyl)-5-hydroxy-2-oxo-2,3-dihydro-1H-benzo[b]azepine-4-carboxylate] | 30 to 1000 | – | 30 to 1000
26 | COC(=O)C1=C(O)c2ccccc2N(Cc2ccc(C)c(F)c2)C(=O)C1 [Example 41, Methyl 1-(3-fluoro-4-methylbenzyl)-5-hydroxy-2-oxo-2,3-dihydro-1H-benzo[b]azepine-4-carboxylate] | 0.001 to 1 | 0.001 to 1 | 0.001 to 1
27 | COC(=O)C1=C(O)c2ccccc2N(Cc2ccccc2)C(=O)C1 [Example 1, Methyl 1-benzyl-5-hydroxy-2-oxo-2,3-dihydro-1H-benzo[b]azepine-4-carboxylate] | 30 to 1000 | – | 30 to 1000
28 | COC(=O)C1=C(O)c2ccccc2N(Cc2ccc(C)c(Br)c2)C(=O)C1 [Example 46, Methyl 1-(3-bromo-4-methylbenzyl)-5-hydroxy-2-oxo-2,3-dihydro-1H-benzo[b]azepine-4-carboxylate] | 1 to 10 | 1 to 10 | 1 to 10
29 | Cc1ccc(CN2C(=O)CC(C(=O)NC3CCCCC3)=C(O)c3ccccc32)cc1F [Example 66, N-cyclohexyl-1-(3-fluoro-4-methylbenzyl)-5-hydroxy-2-oxo-2,3-dihydro-1H-benzo[b]azepine-4-carboxamide] | 10 to 30 | 10 to 30 | 10 to 30
30 | Cc1ccc(CN2C(=O)CC(C(=O)C3CC3)=C(O)c3ccccc32)cc1F [Example 58, 4-(cyclopropanecarbonyl)-1-(3-fluoro-4-methylbenzyl)-5-hydroxy-1,3-dihydro-2H-benzo[b]azepin-2-one] | 0.001 to 1 | 0.001 to 1 | 0.001 to 1
